Results published in publication PMC3909264, “A Novel Acylaminoimidazole Derivative, WN1316, Alleviates Disease Progression via Suppression of Glial Inflammation in ALS Mouse Model” (PLoS ONE, 2014).
Where a name gives a salt, the structure may show the parent alone.

Tested on: total GSH in differentiated SH-SY5Y cells
Assay: Measurement of intracellular glutathione (GSH/GSSG-Glo)
Type: cell-based, human
Conditions: 1–20 µM, 8 h
Procedure: Differentiated SH-SY5Y cells were treated with various concentrations of WN1316 (1–20 µM) or vehicle control (DMSO). After 8 h incubation, the cellular oxidized (GSSG) and reduced glutathione (GSH) levels were measured using the GSH/GSSG-Glo™ Assay kit (Promega) according to the manufacturer’s instructions. GSH and GSSG levels were normalized to protein concentrations.

Cc1cc(C)c(N(C)CC(=O)Nc2nc(-c3ccccn3)c[nH]2)c(C)c1 [WN1316, 2-[mesityl(methyl)amino]-N-[4-(pyridin-2-yl)-1H-imidazol-2-yl] acetamide trihydrochloride]
total GSH level: upregulation of total GSH level
